How the values were obtained:
DRD2 = conditions: teleost; ref [37]; cited from earlier work
[1] = test system: grass carp pituitary cells; test: Signal transduction: pathway inhibitors on GnRH-regulated reproductive gene mRNA; type: cell-based, grass carp (Ctenopharyngodon idellus); conditions: U73122 10 μM, GF109203X 20 μM, 2-APB 100 μM, MDL12330A 20 μM, H89 20 μM, nifedipine 10 μM, calmidazolium 1 μM, KN62 5 μM; for blockade of GnRH2-induced GtHα, LHβ, FSHβ, INHBa, and SgII mRNA expression: cotreated with GnRH2, 24 h; for blockade of GnRH3-induced GtHα, LHβ, FSHβ, INHBa, and SgII mRNA expression: cotreated with GnRH3, 24 h
Experimental: (§1) The preparation of grass carp pituitary cells was performed as mentioned above. After drug treatment, the total RNA of these cells was isolated by TRIzol reagent and reverse transcribed into cDNA with Hifair™ III 1st Strand cDNA Synthesis Kit. The transcript levels of several anorectic peptides (POMCb, CART2, UTS1, NMBa, NMBb, and Lepr) and reproductive genes (GtHα, LHβ, FSHβ, INHBa, SgII, DRD2) were detected by using an ABI 7500 quantitative real-time PCR (qRT-PCR) system (Biosystems, USA) (information of primers for target genes is listed in Supplementary Table S3 ). In this process, a serial gradient dilution of plasmid DNA of these genes was used as a standard for data calibration. The conditions of qRT-PCR were set to 10 min, 95°C, for pre-degeneration; 15 s, 95°C, for degeneration; 30 s, 55°C–60°C, for annealing; 30 s, 72°C, for extending; and 20 s, 82°C, for signal detection with 40 cycles. Finally, the melt curve obtained through each test was used to verify and check the reliability and specificity of the corresponding qRT-PCR.
(§2) In this experiment, GnRH2 (A) or GnRH3 (B) combined with/without the PLC inhibitor U73122 (10 μM), PKC inhibitor GF109203X (20 μM), or IP3 receptor blocker 2-APB (100 μM) was used to incubate the grass carp pituitary cells for 24 (h) After drug treatment, the total RNA was extracted from the cells for real-time PCR of the respective genes. Data presented are expressed as mean ± SEM, and the different letters represent a significant difference at p < 0.05 between groups (ANOVA followed by a Dunnett test).
(§3) In this experiment, GnRH2 (A) or GnRH3 (B) combined with/without the AC inhibitor MDL12330A (20 μM) or PKA inhibitor H89 (20 μM) was used to incubate the grass carp pituitary cells for 24 (h) After drug treatment, the total RNA was extracted from the cells for real-time PCR of the respective genes. Data presented are expressed as mean ± SEM, and the different letters represent a significant difference at p < 0.05 between groups (ANOVA followed by a Dunnett test).
Data presented are expressed as mean ± SEM, and the different letters represent a significant difference at p < 0.05 between groups (ANOVA followed by a Dunnett test).

[2] = test system: grass carp pituitary cells; test: Signal transduction: pathway inhibitors on GnRH-induced anorectic gene mRNA; type: cell-based, grass carp (Ctenopharyngodon idellus); conditions: U73122 10 μM, GF109203X 20 μM, 2-APB 100 μM, MDL12330A 20 μM, H89 20 μM, nifedipine 10 μM, calmidazolium 1 μM, KN62 5 μM; for blockade of GnRH2-induced POMCb, CART2, UTS1, NMBa, NMBb, and LEPR mRNA expression: cotreated with GnRH2, 24 h; for blockade of GnRH3-induced POMCb, CART2, UTS1, NMBa, NMBb, and LEPR mRNA expression: cotreated with GnRH3, 24 h
Experimental: as §1
To explore the signal transduction for GnRH-induced target gene mRNA expression, the method mentioned above was performed.
as §2, with “Figure 10 Signal transduction for GnRH2- and GnRH3-induced POMCb, CART2, UTS1, NMBa, NMBb, and LEPR mRNA expression in grass carp pituitary cells. In” for “In”
as §3, with “Figure 11 Signal transduction for GnRH2- and GnRH3-induced POMCb, CART2, UTS1, NMBa, NMBb, and LEPR mRNA expression in grass carp pituitary cells. In” for “In”
Figure 12 Signal transduction for GnRH2- and GnRH3-induced POMCb, CART2, UTS1, NMBa, NMBb, and LEPR mRNA expression in grass carp pituitary cells. […] Data presented are expressed as mean ± SEM, and the differences between groups were significant at p < 0.05 by labelling diverse letters (ANOVA followed by a Dunnett test).

grass carp pituitary = conditions: ref [15]; cited from earlier work
Text: As we know, energy metabolism was associated with reproductive behavior in vertebrates ([11]), and adequate energy reserve was essential for breeding ([12]).

NCCc1ccc(O)c(O)c1 [dopamine]
effect on LH synthesis via activation of DRD2 (DRD2): inhibited

O=S(=O)(NCCNC/C=C/c1ccc(Br)cc1)c1cccc2cnccc12 [H89]
blockade of GnRH2-induced GtHα, LHβ, FSHβ, INHBa, and SgII mRNA expression [1]: could also be blocked
blockade of GnRH3-induced GtHα, LHβ, FSHβ, INHBa, and SgII mRNA expression [1]: could also be blocked
blockade of GnRH2-induced POMCb, CART2, UTS1, NMBa, NMBb, and LEPR mRNA expression [2]: could block
blockade of GnRH3-induced POMCb, CART2, UTS1, NMBa, NMBb, and LEPR mRNA expression [2]: could block

Cl.c1ccc(C2CCCC2NC2=NCCCCCCCCCCC2)cc1 (centres unmarked) [MDL12330A]
blockade of GnRH2-induced GtHα, LHβ, FSHβ, INHBa, and SgII mRNA expression [1]: could also be blocked
blockade of GnRH3-induced GtHα, LHβ, FSHβ, INHBa, and SgII mRNA expression [1]: could also be blocked
blockade of GnRH2-induced POMCb, CART2, UTS1, NMBa, NMBb, and LEPR mRNA expression [2]: could block
blockade of GnRH3-induced POMCb, CART2, UTS1, NMBa, NMBb, and LEPR mRNA expression [2]: could block

COc1ccc2c(c1)CC[C@@H]1[C@@H]2CC[C@]2(C)[C@@H](NCCCCCCN3C(=O)C=CC3=O)CC[C@@H]12 [U73122]
blockade of GnRH2-induced GtHα, LHβ, FSHβ, INHBa, and SgII mRNA expression [1]: could block
blockade of GnRH3-induced GtHα, LHβ, FSHβ, INHBa, and SgII mRNA expression [1]: could block
blockade of GnRH2-induced POMCb, CART2, UTS1, NMBa, NMBb, and LEPR mRNA expression [2]: could block
blockade of GnRH3-induced POMCb, CART2, UTS1, NMBa, NMBb, and LEPR mRNA expression [2]: could block

Clc1ccc(C(c2ccc(Cl)cc2)n2cc[n+](CC(OCc3ccc(Cl)cc3Cl)c3ccc(Cl)cc3Cl)c2)cc1 (centres unmarked) [calmidazolium]
blockade of GnRH2-induced GtHα, LHβ, FSHβ, INHBa, and SgII mRNA expression [1]: could also block
blockade of GnRH3-induced GtHα, LHβ, FSHβ, INHBa, and SgII mRNA expression [1]: could also block
blockade of GnRH2-induced POMCb, CART2, UTS1, NMBa, NMBb, and LEPR mRNA expression [2]: could block
blockade of GnRH3-induced POMCb, CART2, UTS1, NMBa, NMBb, and LEPR mRNA expression [2]: could block

COC(=O)C1=C(C)NC(C)=C(C(=O)OC)C1c1ccccc1[N+](=O)[O-] [nifedipine]
blockade of GnRH2-induced POMCb, CART2, UTS1, NMBa, NMBb, and LEPR mRNA expression [2]: could block
blockade of GnRH3-induced POMCb, CART2, UTS1, NMBa, NMBb, and LEPR mRNA expression [2]: could block

CN(C)CCCn1cc(C2=C(c3c[nH]c4ccccc34)C(=O)NC2=O)c2ccccc21 [GF109203X]
blockade of GnRH2-induced GtHα, LHβ, FSHβ, INHBa, and SgII mRNA expression [1]: could block
blockade of GnRH3-induced GtHα, LHβ, FSHβ, INHBa, and SgII mRNA expression [1]: could block
blockade of GnRH2-induced POMCb, CART2, UTS1, NMBa, NMBb, and LEPR mRNA expression [2]: could block
blockade of GnRH3-induced POMCb, CART2, UTS1, NMBa, NMBb, and LEPR mRNA expression [2]: could block

NCCOB(c1ccccc1)c1ccccc1 [2-APB]
blockade of GnRH2-induced GtHα, LHβ, FSHβ, INHBa, and SgII mRNA expression [1]: could block
blockade of GnRH3-induced GtHα, LHβ, FSHβ, INHBa, and SgII mRNA expression [1]: could block
blockade of GnRH2-induced POMCb, CART2, UTS1, NMBa, NMBb, and LEPR mRNA expression [2]: could block
blockade of GnRH3-induced POMCb, CART2, UTS1, NMBa, NMBb, and LEPR mRNA expression [2]: could block

prolactin-releasing peptide [PRRP]
effect on LH secretion and synthesis (grass carp pituitary): significantly induce

CN([C@@H](Cc1ccc(OS(=O)(=O)c2cccc3cnccc23)cc1)C(=O)N1CCN(c2ccccc2)CC1)S(=O)(=O)c1cccc2cnccc12 [KN62]
blockade of GnRH2-induced GtHα, LHβ, FSHβ, INHBa, and SgII mRNA expression [1]: could also block
blockade of GnRH3-induced GtHα, LHβ, FSHβ, INHBa, and SgII mRNA expression [1]: could also block
blockade of GnRH2-induced POMCb, CART2, UTS1, NMBa, NMBb, and LEPR mRNA expression [2]: could block
blockade of GnRH3-induced POMCb, CART2, UTS1, NMBa, NMBb, and LEPR mRNA expression [2]: could block

From publication PMC9595134, “Novel pituitary actions of GnRH in teleost: The link between reproduction and feeding regulation” (Frontiers in Endocrinology, 2022)
